Measurements from patent US20240309018A1, “THIAZOLE-LACTAM-SPIROHETEROCYCLIC COMPOUNDS AND APPLICATIONS THEREOF” (D3 BIO (WUXI) CO., LTD, priority 2021, published 2024).
Converted amounts (≈) assume the structure as drawn. Read-outs that look alike come from different tables or passages of the source.

Legend:
[1] = Solubility study (HPLC-UV, phosphate buffers); assay type: physicochemical; conditions: 25 °C, aqueous buffer, kinetic from dmso stock, 25±2° C., 2% DMSO, theoretical maximum 200 μM
Method: The solubility of the compound was determined to evaluate the solubility property of the compound.
• 1) Buffer A (pH 2.0): 50 mM phosphate buffer, pH 2.0; Buffer B (pH 6.5): 50 mM phosphate buffer, pH 6.5: Buffer C (pH 7.4): 50 mM phosphate buffer, pH 7.4; • 2) Preparation of standard solution: • a) 50% acetonitrile solution and 50% buffer solution were mixed to obtain a diluent; • b) 10 mM (10 μL/compound) compound stock solution was added to the diluent (490 μL/compound) to obtain 200 μM detection standard solution; • c) The 200 μM UV detection standard solution was diluted with 10-fold and 200-fold volume of diluents to obtain 20 μM and 1 μM UV standard solutions, respectively; • d) UV standard solutions of 1 μM, 20 µM, and 200 μM were used as standard solutions for solubility assays.
• 1) The compound was dissolved in DMSO to prepare a 10 mM stock solution. […] The pH of the corresponding solubility solutions was 2.0, 6.5 and 7.4, respectively. The theoretical maximum concentration of the assay compound is 200 μM with 2% DMSO; • 3) The plate was shaken in a shaker at room temperature (25±2° C.) at 600 rpm for 24 hours; • 4) 200 μL of the solution was pipetted from the 96-well plate, filtered with suction by a vacuum suction filtration device, and transferred into a new 96-well plate as an assay sample; • 5) The compound concentration was determined using HPLC-UV.
• 6) Three UV standard solutions from low concentration to high concentration (1 μM, 20 μM, 200 μM) were injected into HPLC, and then the assay sample of the compound to be assayed was injected; • 7) The UV chromatographic peaks were integrated, and the solubility of the sample was calculated.

[2] = In vivo PK study in cynomolgus monkeys; parameters: species or system cynomolgus monkey; conditions: male cynomolgus monkeys
Method: Male cynomolgus monkeys were used as assay animals. After a single administration, the plasma concentration of the compound was measured and the pharmacokinetic behavior was evaluated.
Five healthy adult male cynomolgus monkeys were selected, wherein 2 animals were in an intravenous injection group, and 3 animals were in an oral group. The vehicle in the intravenous injection group was 5% DMSO+95% (20% HP-β-CD). The compound to be assayed was mixed with an appropriate amount of vehicle for intravenous injection, and dissolved with stirring to prepare a clear solution of 0.4 mg/mL. The clear solution was filtered by a microporous membrane, and then ready for use. The vehicle in the oral group was 5% DMSO+95% (20% HP-β-CD). The compound to be assayed was mixed with the vehicle, and dissolved with stirring to prepare a solution of 0.3 mg/mL. Cynomolgus monkeys were administered 1 mg/kg intravenously or 3 mg/kg orally, and then whole blood was collected for a certain period. Plasma was prepared. The drug concentration was analyzed by LC-MS/MS method, and the pharmacokinetic parameters were calculated by Phoenix WinNonlin software (Pharsight, USA).

[3] = test system: human melanoma A375 cells; experiment: In vivo efficacy in subcutaneous xenograft tumor model of human melanoma A375; conditions: PO, BID, day 21, BALB/c nude mouse A375 xenograft
Method: The anti-tumor effect of WX001 was evaluated using a subcutaneous xenograft tumor model of human melanoma A375 cells in nude mouse.
• Species: mouse • Strain: BALB/c nude mouse • Age: 6-8 weeks old • Gender: female • Body weight: 18-22 grams • Supplier: Vital River Laboratory Animal Technology Co., Ltd.
• 1) Assay cells and culture: Human melanoma A375 cells were cultured in monolayer in vitro. The culture conditions were DMEM medium plus 10% fetal bovine serum, and a 37° C. 5% CO2 incubator. Routine digestion with trypsin-EDTA was performed twice a week for passage. When the cell saturation was 80%-90% and the amount reached the requirement, the cells were harvested, counted, and inoculated: • 2) Tumor tissue inoculation and grouping: 0.1 mL (5×10^5) of A375 cells were subcutaneously inoculated into the right armpit of each mouse. When the average tumor volume reached 170 mm^3, the animals were randomly divided into 4 groups and the administration was started.
• 3) Daily observation of assay animals: The development of this assay protocol and any modifications were evaluated and approved by the Institutional Animal Care and Use Committee (IACUC). […] Animals were monitored daily for health and death. […] Animal deaths and side effects in each group were recorded based on the number of animals in each group. • 4) Formulation of assay compound • a) Vehicle group: 5% DMSO+95% (20% HP-β-CD). • b) Assay compound group: A quantitative amount of the assay compound was weighed in a formulation bottle. […] A corresponding volume of 20% HP-β-CD was added and then the mixture was vortexed to obtain a homogeneous suspension. • 5) Tumor measurement and assay indicator: • a) Tumor diameter was measured twice a week with a vernier caliper. The calculation formula of tumor volume was: TV=1/2×a×b^2, wherein a and b represent the long and short diameters of tumor, respectively: • b) The tumor-inhibitory efficacy of the compound was evaluated by TGI (%). […]

For `Cc1cccc(CN2C(=O)c3nc(-c4nc(Nc5ccnn5C)ncc4C)sc3C23COC3)n1` [WX001], the solubility at 24 h ([1]; 50 mM phosphate buffer pH 2.0, 24 hours, read-out: Solubility at pH = 2.0) was 200 µM (≈ 94.7 µg/mL), the solubility at 24 h ([1]; 50 mM phosphate buffer pH 6.5, 24 hours, read-out: Solubility at pH = 6.5) was 2.94 µM (≈ 1.4 µg/mL) and the solubility at 24 h ([1]; 50 mM phosphate buffer pH 7.4, 24 hours, read-out: Solubility at pH = 7.4) was 2.64 µM (≈ 1.25 µg/mL). It also gave a clearance ([2]; cynomolgus monkey, plasma, intravenous, 1 mg/kg intravenously or 3 mg/kg orally) of 16.1 mL/min/kg, a Vd ([2]; cynomolgus monkey, plasma, intravenous, 1 mg/kg intravenously or 3 mg/kg orally, read-out: Vdss) of 1.98 L/kg and a half-life ([2]; cynomolgus monkey, plasma, 1 mg/kg intravenously or 3 mg/kg orally) of 2.41 h. The bioavailability ([2]; cynomolgus monkey, plasma, 1 mg/kg intravenously, 3 mg/kg orally, oral bioavailability) was 50%, the Cmax ([2]; cynomolgus monkey, single dose, 1 mg/kg intravenously or 3 mg/kg orally, plasma) was 921 nM and the “Oral DNAUC” value ([2]; 3 mg/kg orally, AUCPO/Dose) was 1152.35 nM · h/mpk. For the same compound, the TGI ([3]; 12.5 mg/kg) was 45%, the TGI ([3]; 25 mg/kg) was 58% and the TGI ([3]; 50 mg/kg) was 102%.
